Results from PMC5080452 (Bioorganic & Medicinal Chemistry, 2016).

Assays:
[1] = in vitro; conditions: pig, PAMPA
[2] = molecular target: T1, Electrophorus electricus (Ee) AChE (Electrophorus electricus, UniProt O42275); test: Acetylcholinesterase inhibitory activity (Ellman method); type: biochemical; conditions: mean ± SEM, read-out: EeAChE IC50
T1 construct: purchased Sigma-Aldrich
Description: The inhibitory activity against Electrophorus electricus (Ee) AChE (Sigma–Aldrich) was evaluated spectrophotometrically by the method of Ellman et al.[56] […] Inhibition curves were performed in duplicates using at least 10 increasing concentrations of inhibitors and preincubated for 20 min at 37 °C before adding the substrate. One duplicate sample without inhibitor was always present to yield 100% of AChE activity.
Results are expressed as mean ± SEM of at least 4 experiments performed in duplicate.

[3] = commercial drugs for PAMPA-BBB assay validation; cited from earlier work

T1 sequence (O42275 24-633): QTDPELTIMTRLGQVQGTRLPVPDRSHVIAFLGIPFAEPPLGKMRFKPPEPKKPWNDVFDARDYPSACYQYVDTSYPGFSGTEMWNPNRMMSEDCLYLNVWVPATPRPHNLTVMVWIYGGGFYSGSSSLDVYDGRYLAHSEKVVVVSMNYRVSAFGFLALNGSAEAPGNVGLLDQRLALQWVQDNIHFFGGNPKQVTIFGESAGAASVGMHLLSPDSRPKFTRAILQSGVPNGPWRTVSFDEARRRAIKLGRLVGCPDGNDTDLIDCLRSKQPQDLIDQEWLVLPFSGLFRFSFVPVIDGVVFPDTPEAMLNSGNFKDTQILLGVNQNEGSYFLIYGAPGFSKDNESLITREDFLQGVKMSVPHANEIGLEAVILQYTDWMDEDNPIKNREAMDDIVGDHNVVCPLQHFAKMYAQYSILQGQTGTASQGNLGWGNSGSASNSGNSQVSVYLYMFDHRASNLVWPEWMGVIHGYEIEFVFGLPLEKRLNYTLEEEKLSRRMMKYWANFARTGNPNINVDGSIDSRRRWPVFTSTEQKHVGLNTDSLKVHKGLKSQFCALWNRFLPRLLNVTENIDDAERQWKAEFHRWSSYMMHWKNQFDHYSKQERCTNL

Row | SMILES | Papp [1] [×10⁻⁶ cm/s] | IC50 [2] [nM] | Pe, literature value [3]
1 | CC1=CC2Cc3nc4cc(Cl)ccc4c(NCCCN4CCCCC4)c3C(C1)C2 (racemic) [compound 7, 3-Chloro-6,7,10,11-tetrahydro-9-methyl-12-[(3-piperidinopropyl)amino]-7,11-methanocycloocta[b]quinoline] | 5.9 ± 0.4 | 48.4 ± 2.7 | –
2 | CC1=CC2Cc3nc4cc(Cl)ccc4c(NCCCN4CCOCC4)c3C(C1)C2 (racemic) [compound 8, (±)-3-Chloro-6,7,10,11-tetrahydro-9-methyl-12-[(3-morpholinopropyl)amino]-7,11-methanocycloocta[b]quinoline] | 15 ± 1 | 13.3 ± 0.8 | –
3 | CC1=CC2Cc3nc4cc(Cl)ccc4c(NCCCCC#N)c3C(C1)C2 (centres unmarked) [4a] | – | 26.9 ± 1.1 | –
4 | CC1=CC2Cc3nc4cc(Cl)ccc4c(NCCCCCC#N)c3C(C1)C2 (centres unmarked) [4b] | 12.4 ± 0.6 | 31.1 ± 3.1 | –
5 | CC1=CC2Cc3nc4cc(Cl)ccc4c(NCCCCCCCCCC#N)c3C(C1)C2 (centres unmarked) [4f] | 11.3 ± 1.2 | 9.67 ± 0.89 | –
6 | CC1=CC2Cc3nc4cc(Cl)ccc4c(NCc4ccc(C#N)cc4)c3C(C1)C2 (centres unmarked) [4h] | 19.3 ± 1.2 | 158 ± 21 | –
7 | CC1=CC2Cc3nc4cc(Cl)ccc4c(NCCCCCCCN)c3C(C1)C2 (centres unmarked) [5c] | 7.6 ± 0.7 | 36 ± 3.5 | –
8 | CC1=CC2Cc3nc4cc(Cl)ccc4c(NCCCCCCCCN)c3C(C1)C2 (centres unmarked) [5d] | 9.8 ± 0.6 | 17.3 ± 1.2 | –
9 | CC1=CC2Cc3nc4cc(Cl)ccc4c(NCCCCCCCCCN)c3C(C1)C2 (centres unmarked) [5e] | 7.1 ± 0.7 | 16.4 ± 1.8 | –
10 | CC1=CC2Cc3nc4cc(Cl)ccc4c(NCCCCCCCCCCCN)c3C(C1)C2 (centres unmarked) [5g] | 4 ± 0.2 | 35.3 ± 3.9 | –
11 | CC1=C[C@@H]2Cc3nc4cc(Cl)ccc4c(NCc4ccc(CN)cc4)c3[C@H](C1)C2 [5h] | 11.7 ± 1.1 | – | –
12 | CC1=CC2Cc3nc4cc(Cl)ccc4c(NCCCCCCNC(=N)N)c3C(C1)C2 (centres unmarked) [6b, 1-{6-[(3-Chloro-6,7,10,11-tetrahydro-9-methyl-7,11-methanocycloocta[b]quinolin-12-yl)amino]hexyl}guanidine] | 2.9 ± 0.4 | 11.8 ± 1.3 | –
13 | CC1=CC2Cc3nc4cc(Cl)ccc4c(NCCCCCCCCCNC(=N)N)c3C(C1)C2 (centres unmarked) [6e, 1-{9-[(3-Chloro-6,7,10,11-tetrahydro-9-methyl-7,11-methanocycloocta[b]quinolin-12-yl)amino]nonyl}guanidine] | 5.4 ± 0.3 | 10.6 ± 0.8 | –
14 | N#CCCCCCCNc1c2c(nc3ccccc13)CCCC2 [11c, 7-[(1,2,3,4-Tetrahydroacridin-9-yl)amino]heptanenitrile] | 11.2 ± 0.2 | 53.9 ± 3 | –
15 | N#CCCCCCCCCNc1c2c(nc3ccccc13)CCCC2 [11e, 9-[(1,2,3,4-Tetrahydroacridin-9-yl)amino]nonanenitrile] | 7.6 ± 0.35 | 44.9 ± 1.6 | –
16 | N#CCCCCCCNc1c2c(nc3cc(Cl)ccc13)CCCC2 [12c, 7-[(6-Chloro-1,2,3,4-tetrahydroacridin-9-yl)amino]heptanenitrile] | 16.7 ± 0.9 | – | –
17 | N#CCCCCCCCNc1c2c(nc3cc(Cl)ccc13)CCCC2 [12d, 8-[(6-Chloro-1,2,3,4-tetrahydroacridin-9-yl)amino]octanenitrile] | 14.7 ± 0.8 | 46 ± 6 | –
18 | N#CCCCCCCCCNc1c2c(nc3cc(Cl)ccc13)CCCC2 [12e, 9-[(6-Chloro-1,2,3,4-tetrahydroacridin-9-yl)amino]nonanenitrile] | 5.4 ± 0.4 | 24.3 ± 4.5 | –
19 | NCCCCCCCNc1c2c(nc3ccccc13)CCCC2 [13c] | 7.4 ± 0.1 | 23.9 ± 2.6 | –
20 | NCCCCCCCCCNc1c2c(nc3ccccc13)CCCC2 [13e] | 6.9 ± 0.5 | 15.6 ± 1.5 | –
21 | NCCCCCCCCCNc1c2c(nc3cc(Cl)ccc13)CCCC2 [14e] | 5.8 ± 0.3 | 14.5 ± 1.6 | –
22 | N=C(N)NCCCCCCCNc1c2c(nc3ccccc13)CCCC2 [15c, 1-{7-[(1,2,3,4-Tetrahydroacridin-9-yl)amino]heptyl}guanidine] | 5.9 ± 0.3 | 23.9 ± 2.6 | –
23 | N=C(N)NCCCCCCCCCNc1c2c(nc3ccccc13)CCCC2 [15e, 1-{9-[(1,2,3,4-Tetrahydroacridin-9-yl)amino]nonyl}guanidine] | 6.5 ± 0.3 | 30.5 ± 1.9 | –
24 | N=C(N)NCCCCCCCCCNc1c2c(nc3cc(Cl)ccc13)CCCC2 [16e, 1-{9-[(6-Chloro-1,2,3,4-tetrahydroacridin-9-yl)amino]nonyl}guanidine] | 6.7 ± 0.4 | 16.4 ± 1.5 | –
25 | CN(C)CCCN1c2ccccc2Sc2ccccc21 [Promazine] | – | – | 8.8 10^−6 cm s^−1
26 | CC1=CC2Cc3nc4cc(Cl)ccc4c(N)c3C(C1)C2 (centres unmarked) [compound 1, huprine Y, reference compound] | – | 0.3 ± 0.01 | –
